{"source": "patent US20250282785A1", "about": "“PYRROLIDINONE DERIVATIVES AS INHIBITORS OF NF KAPPA B INDUCING KINASE” (priority 2022, published 2025)", "key": {"[1]": {"target": "Recombinant Human NF-Kappab-Inducing Kinase (NIK/MAP3K14) (Homo sapiens, UniProt Q99558)", "sequence (Q99558 whole entry)": "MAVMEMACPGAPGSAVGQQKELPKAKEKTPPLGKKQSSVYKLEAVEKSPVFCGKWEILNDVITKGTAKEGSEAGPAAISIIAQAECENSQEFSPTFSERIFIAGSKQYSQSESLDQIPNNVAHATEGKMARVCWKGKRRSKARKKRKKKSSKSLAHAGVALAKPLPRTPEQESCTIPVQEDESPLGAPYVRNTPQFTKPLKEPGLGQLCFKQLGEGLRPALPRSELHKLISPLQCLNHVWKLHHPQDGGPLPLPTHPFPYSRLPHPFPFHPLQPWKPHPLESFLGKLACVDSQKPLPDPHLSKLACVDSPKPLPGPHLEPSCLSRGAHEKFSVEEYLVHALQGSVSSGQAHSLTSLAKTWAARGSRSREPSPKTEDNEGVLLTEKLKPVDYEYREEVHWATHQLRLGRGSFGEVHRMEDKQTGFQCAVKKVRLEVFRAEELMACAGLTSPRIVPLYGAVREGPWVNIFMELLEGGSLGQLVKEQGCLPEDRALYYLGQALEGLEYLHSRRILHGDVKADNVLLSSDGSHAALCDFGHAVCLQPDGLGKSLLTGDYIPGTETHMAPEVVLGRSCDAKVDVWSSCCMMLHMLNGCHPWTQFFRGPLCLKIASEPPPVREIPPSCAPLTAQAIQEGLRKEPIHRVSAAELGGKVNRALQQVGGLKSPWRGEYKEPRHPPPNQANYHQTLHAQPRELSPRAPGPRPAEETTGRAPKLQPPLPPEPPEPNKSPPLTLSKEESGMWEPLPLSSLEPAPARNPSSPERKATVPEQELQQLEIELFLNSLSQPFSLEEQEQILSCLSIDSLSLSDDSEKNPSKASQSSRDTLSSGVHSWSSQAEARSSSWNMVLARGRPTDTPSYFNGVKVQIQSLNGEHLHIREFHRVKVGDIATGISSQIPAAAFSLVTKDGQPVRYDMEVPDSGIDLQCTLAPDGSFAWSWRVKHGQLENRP", "assay": "Inhibition of auto-phosphorylation of recombinant human NIK/MAP3K14 (AlphaScreen)", "type": "biochemical", "details": "NIK/MAP3K14 auto-phosphorylation, 5 microM ATP, 1 nM enzyme, 2 h at 25° C.; average of values; read-out: Assay 1 IC50", "in_short": "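AlphaScreen read-out used anti-phospho-IKK Ser176/180 antibody after 2 h, 25 °C incubation of compound, 1 nM GST-NIK and 5 µM ATP (final DMSO 0.7%). Percent inhibition referenced to high (enzyme) and low (no enzyme, no ATP) controls; sigmoidal curve fitting gave IC50.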"}, "[2]": {"tested_on": "p-IKKα levels in L363 (NIK translocated multiple myeloma) cells", "assay": "Effect of compounds on p-IKKα levels in L363 cells (AlphaLISA SureFire Ultra)", "type": "cell-based", "details": "Homo sapiens, L-363; L363 cells, BAFF stimulated, MG132, 6 h; average of values; read-out: Assay 2 IC50", "in_short": "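Phospho-IKKα (Ser 176/180) was quantified by AlphaLISA in lysed L363 cells after 6 h compound exposure (0.3% DMSO, 11 points, 1:3) alongside 250 ng/ml BAFF and 10 uM MG132, following overnight BAFF priming in low-serum DMEM. Duplicate curves were scaled between BAFF/DMSO/MG132 and unstimulated DMSO wells, then fitted sigmoidally for IC50.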"}}}
{"smiles": "CN1CC[C@@](O)(c2cc(-c3cccc(-c4nc(Nc5ccn(C)n5)c(C(F)(F)F)c(C(N)=O)n4)c3)no2)C1=O", "note": "[Example 133, (R)-2-(3-(5-(3-Hydroxy-1-methyl-2-oxopyrrolidin-3-yl)isoxazol-3-yl)phenyl)-6-((1-methyl-1H-pyrazol-3-yl)amino)-5-(trifluoromethyl)pyrimidine-4-carboxamide]", "values": [{"measurement": "IC50", "setting": "[1]", "value": "< 100", "unit": "nM"}, {"measurement": "IC50", "setting": "[2]", "value": "> 501", "unit": "nM"}]}
{"smiles": "Cc1nc(N)c2nc(-c3cc(-c4cc([C@]5(O)CCN(C)C5=O)on4)ccn3)ccc2n1", "note": "[Example 170, (R)-3-(3-(2-(4-Amino-2-methylpyrido[3,2-d]pyrimidin-6-yl)pyridin-4-yl)isoxazol-5-yl)-3-hydroxy-1-methylpyrrolidin-2-one]", "values": [{"measurement": "IC50", "setting": "[1]", "value": "< 100", "unit": "nM"}, {"measurement": "IC50", "setting": "[2]", "value": "> 501", "unit": "nM"}]}
{"smiles": "CN1CC[C@@](O)(c2cc(-c3cccc(-c4ncc(Nc5cnn(C)c5)c(C(N)=O)n4)c3)no2)C1=O", "note": "[Example 137, (R)-2-(3-(5-(3-Hydroxy-1-methyl-2-oxopyrrolidin-3-yl)isoxazol-3-yl)phenyl)-5-((1-methyl-1H-pyrazol-4-yl)amino)pyrimidine-4-carboxamide]", "values": [{"measurement": "IC50", "setting": "[1]", "value": "< 100", "unit": "nM"}, {"measurement": "IC50", "setting": "[2]", "value": "< 100", "unit": "nM"}]}
{"smiles": "CN1CC[C@@](O)(c2cc(-c3cccc(-c4cccc5[nH]ccc45)c3)no2)C1=O", "note": "[Example 77, (R)-3-(3-(3-(1H-Indol-4-yl)phenyl)isoxazol-5-yl)-3-hydroxy-1-methylpyrrolidin-2-one]", "values": [{"measurement": "IC50", "setting": "[1]", "value": "> 501", "unit": "nM"}, {"measurement": "IC50", "setting": "[2]", "value": "> 501", "unit": "nM"}]}
{"smiles": "CN1CC[C@@](O)(c2cc(-c3cccc(-c4cc(-c5cncs5)cc(C(N)=O)n4)c3)no2)C1=O", "note": "[Example 184, (R)-6-(3-(5-(3-Hydroxy-1-methyl-2-oxopyrrolidin-3-yl)isoxazol-3-yl)phenyl)-4-(thiazol-5-yl)picolinamide]", "values": [{"measurement": "IC50", "setting": "[1]", "value": "< 100", "unit": "nM"}, {"measurement": "IC50", "setting": "[2]", "value": "100 to 500", "unit": "nM"}]}
{"smiles": "CN1CC[C@@](O)(c2cc(-c3cccc(-c4nc(C(N)=O)c(NC5COC5)s4)c3)no2)C1=O", "note": "[Example 210, (R)-2-(3-(5-(3-Hydroxy-1-methyl-2-oxopyrrolidin-3-yl)isoxazol-3-yl)phenyl)-5-(oxetan-3-ylamino)thiazole-4-carboxamide]", "values": [{"measurement": "IC50", "setting": "[1]", "value": "< 100", "unit": "nM"}, {"measurement": "IC50", "setting": "[2]", "value": "< 100", "unit": "nM"}]}
{"smiles": "CN1CC[C@@](O)(c2cc(-c3cccc(-c4nc5c(N)ncnc5s4)c3)no2)C1=O", "note": "[Example 13, (R)-3-(3-(3-(7-Aminothiazolo[5,4-d]pyrimidin-2-yl)phenyl)isoxazol-5-yl)-3-hydroxy-1-methylpyrrolidin-2-one]", "values": [{"measurement": "IC50", "setting": "[1]", "value": "< 100", "unit": "nM"}, {"measurement": "IC50", "setting": "[2]", "value": "> 501", "unit": "nM"}]}
{"smiles": "COc1cc(-c2cccc(-c3cc([C@]4(O)CCN(C)C4=O)on3)c2)nc(C(N)=O)c1N", "note": "[Example 46, (R)-3-Amino-6-(3-(5-(3-hydroxy-1-methyl-2-oxopyrrolidin-3-yl)isoxazol-3-yl)phenyl)-4-methoxypicolinamide]", "values": [{"measurement": "IC50", "setting": "[1]", "value": "< 100", "unit": "nM"}, {"measurement": "IC50", "setting": "[2]", "value": "< 100", "unit": "nM"}]}
{"smiles": "Cc1cc(N2CCC[C@@H](c3cc([C@]4(O)CCN(C)C4=O)on3)C2)nc2c(N)ncnc12", "note": "(single isomer, unassigned) [Example 199]", "values": [{"measurement": "IC50", "setting": "[1]", "value": "< 100", "unit": "nM"}, {"measurement": "IC50", "setting": "[2]", "value": "> 501", "unit": "nM"}]}
{"smiles": "CN1CC[C@@](O)(c2cc(-c3cccc(-c4nc(C(N)=O)c(Nc5ccn(C)n5)s4)c3)no2)C1=O", "note": "[Example 236, (R)-2-(3-(5-(3-Hydroxy-1-methyl-2-oxopyrrolidin-3-yl)isoxazol-3-yl)phenyl)-5-((1-methyl-1H-pyrazol-3-yl)amino)thiazole-4-carboxamide]", "values": [{"measurement": "IC50", "setting": "[1]", "value": "< 100", "unit": "nM"}, {"measurement": "IC50", "setting": "[2]", "value": "< 100", "unit": "nM"}]}
{"smiles": "COc1cc(-c2cc([C@]3(O)CCN(C)C3=O)on2)cc(-c2cccc(C(N)=O)n2)c1", "note": "[Example 153, (R)-6-(3-(5-(3-Hydroxy-1-methyl-2-oxopyrrolidin-3-yl)isoxazol-3-yl)-5-methoxyphenyl)picolinamide]", "values": [{"measurement": "IC50", "setting": "[1]", "value": "< 100", "unit": "nM"}, {"measurement": "IC50", "setting": "[2]", "value": "> 501", "unit": "nM"}]}
{"smiles": "CN1CC[C@@](O)(c2cc(-c3cccc(-c4ncc(N)c(C(=O)N[C@H]5CCOC5)n4)c3)no2)C1=O", "note": "[Example 126, 5-Amino-2-(3-(5-((R)-3-hydroxy-1-methyl-2-oxopyrrolidin-3-yl)isoxazol-3-yl)phenyl)-N—((S)-tetrahydrofuran-3-yl)pyrimidine-4-carboxamide]", "values": [{"measurement": "IC50", "setting": "[1]", "value": "< 100", "unit": "nM"}, {"measurement": "IC50", "setting": "[2]", "value": "> 501", "unit": "nM"}]}
{"smiles": "CN1CC[C@@](O)(c2cc(-c3cccc(-c4cccc(C(N)=O)n4)c3)on2)C1=O", "note": "[Example 18, (R)-6-(3-(3-(3-Hydroxy-1-methyl-2-oxopyrrolidin-3-yl)isoxazol-5-yl)phenyl)picolinamide]", "values": [{"measurement": "IC50", "setting": "[1]", "value": "< 100", "unit": "nM"}, {"measurement": "IC50", "setting": "[2]", "value": "> 501", "unit": "nM"}]}
{"smiles": "CN1CC[C@@](O)(c2cc(-c3cccc(-c4nc5c(c(C(N)=O)n4)[C@H]4CC[C@@H](C5)O4)c3)[nH]n2)C1=O", "note": "[Example 173, (5R,8S)-2-(3-(5-((R)-3-Hydroxy-1-methyl-2-oxopyrrolidin-3-yl)-1H-pyrazol-3-yl)phenyl)-6,7,8,9-tetrahydro-5H-5,8-epoxycyclohepta[d]pyrimidine-4-carboxamide]", "values": [{"measurement": "IC50", "setting": "[1]", "value": "< 100", "unit": "nM"}, {"measurement": "IC50", "setting": "[2]", "value": "> 501", "unit": "nM"}]}
{"smiles": "CN1CCC(O)(c2cc(-c3cccc(-c4ncc5ccnc(N)c5n4)c3)on2)C1=O", "note": "(racemic) [Example 165]", "values": [{"measurement": "IC50", "setting": "[1]", "value": "< 100", "unit": "nM"}, {"measurement": "IC50", "setting": "[2]", "value": "> 501", "unit": "nM"}]}
{"smiles": "CN1CC[C@@](O)(c2cc(-c3cccc(-c4ccc5c(cnn5C)n4)c3)no2)C1=O", "note": "[Example 229, (R)-3-Hydroxy-1-methyl-3-(3-(3-(1-methyl-1H-pyrazolo[4,3-b]pyridin-5-yl)phenyl)isoxazol-5-yl)pyrrolidin-2-one]", "values": [{"measurement": "IC50", "setting": "[1]", "value": "> 501", "unit": "nM"}, {"measurement": "IC50", "setting": "[2]", "value": "> 501", "unit": "nM"}]}
{"smiles": "[2H]C([2H])([2H])N1CC[C@@](O)(c2cc(-c3cccc(-c4nc(C(N)=O)n5c4CCCC5)c3)no2)C1=O", "note": "[Example 181, (R)-1-(3-(5-(3-Hydroxy-1-(methyl-d3)-2-oxopyrrolidin-3-yl)isoxazol-3-yl)phenyl)-5,6,7,8-tetrahydroimidazo[1,5-a]pyridine-3-carboxamide]", "values": [{"measurement": "IC50", "setting": "[1]", "value": "< 100", "unit": "nM"}, {"measurement": "IC50", "setting": "[2]", "value": "100 to 500", "unit": "nM"}]}
{"smiles": "CN1CC[C@@](O)(c2cc(-c3cccc(-c4nc(C(N)=O)c5[nH]ccc5n4)c3)no2)C1=O", "note": "[Example 134, (R)-2-(3-(5-(3-Hydroxy-1-methyl-2-oxopyrrolidin-3-yl)isoxazol-3-yl)phenyl)-5H-pyrrolo[3,2-d]pyrimidine-4-carboxamide]", "values": [{"measurement": "IC50", "setting": "[1]", "value": "< 100", "unit": "nM"}, {"measurement": "IC50", "setting": "[2]", "value": "< 100", "unit": "nM"}]}
{"smiles": "CN1CC[C@@](O)(c2cc(-c3cccc(-n4cc(C(N)=O)c(N)n4)n3)no2)C1=O", "note": "[Example 195, (R)-3-Amino-1-(6-(5-(3-Hydroxy-1-methyl-2-oxopyrrolidin-3-yl)isoxazol-3-yl)pyridin-2-yl)-1H-pyrazole-4-carboxamide]", "values": [{"measurement": "IC50", "setting": "[1]", "value": "< 100", "unit": "nM"}, {"measurement": "IC50", "setting": "[2]", "value": "> 501", "unit": "nM"}]}
